Data reported in ChEMBL document CHEMBL4368895, “Incorporation of an intramolecular hydrogen bonding motif in the side chain of antimalarial benzimidazoles” (Medchemcomm, 2019).
Converted amounts (≈) assume the structure as drawn.

Assays:
CHO = experiment: Cytotoxicity in CHO cells assessed as reduction in cell viability by MTT assay; assay type: cell-based; conditions: Cricetulus griseus
Plasmodium falciparum [1] = experiment: Antiplasmodium activity against multidrug resistant Plasmodium falciparum K1 asexual blood stage forms infected in human erythrocytes assessed as reduction in [3H]-hypoxanthine incorporation incubated for 48 hrs by liquid scintillation counting method; assay type: functional, organism-based
Plasmodium falciparum [2] = experiment: Antiplasmodium activity against chloroquine-sensitive Plasmodium falciparum NF54 asexual blood stage forms infected in human erythrocytes assessed as reduction in [3H]-hypoxanthine incorporation incubated for 48 hrs by liquid scintillation counting method; assay type: functional, organism-based
[3] = Kinetic solubility in pH 7.4 PBS at 0.125 to 8 mM incubated for 2 hrs by turbidimetric kinetic solubility assay; assay type: physicochemical; conditions: read-out: Kinetic_solubility
[4] = Selectivity index, ratio of IC50 for cytotoxicity in CHO cells to IC50 for antiplasmodium activity against chloroquine-sensitive Plasmodium falciparum NF54 asexual blood stage forms infected in human erythrocytes; assay type: toxicity, cell-based; conditions: Chinese hamster, read-out: Ratio IC50
Hemozoin = experiment: Inhibition of beta-hematin formation assessed as reduction in hemozoin formation incubated for 5 hrs by NP40 detergent-based assay

| Compound | IC50 (CHO) [µM] | IC50 (Plasmodium falciparum [1]) [nM] | IC50 (Plasmodium falciparum [2]) [nM] | solubility kinetic at 2 h [3] [µM] | selectivity ratio [4] | IC50 (Hemozoin) [µM] |
| --- | --- | --- | --- | --- | --- | --- |
| CCN(CCNc1nc2ccccc2[nH]1)Cc1ccc(Cl)cc1O | 21.6 | 335 | 79 | 160 (≈ 55.2 µg/mL) | 273 | 32 |
| CCN(CCNc1nc2ccccc2[nH]1)Cc1cc(Cl)cc(Cl)c1O | 50 | 1400 | 400 | 160 (≈ 60.7 µg/mL) | 125 | 30 |
| CCN(CCNc1nc2ccccc2[nH]1)Cc1ccccc1O | 50 | 2660 | 474 | > 200 | 105 | 452 |
| CCN(CCNc1nc2ccccc2[nH]1)Cc1cccnc1O | 50 | > 10000 | > 10000 | > 200 | – | – |
| CCN(CCNc1nc2ccccc2[nH]1)Cc1cc(F)cc(F)c1O | 50 | 952 | 222 | 140 (≈ 48.5 µg/mL) | 225 | 68 |
| CCN(CCNc1nc2ccccc2[nH]1)Cc1ccccc1 | – | 1880 | 3600 | 140 (≈ 41.2 µg/mL) | – | – |
| C[C@H]1[C@H](OC(=O)CCC(=O)O)O[C@@H]2O[C@@]3(C)CC[C@H]4[C@H](C)CC[C@@H]1[C@@]24OO3 [ARTESUNATE] | – | – | 7 | – | – | – |
| CCN(CCNc1nc2ccccc2[nH]1)Cc1cccc(Cl)c1O | 50 | 1250 | 521 | 160 (≈ 55.2 µg/mL) | 96 | 130 |
| CCN(CCNc1nc2ccccc2[nH]1)Cc1cccc(F)c1O | 50 | 1490 | 299 | 160 (≈ 52.5 µg/mL) | 167 | 161 |
| CCN(CCNc1nc2ccccc2[nH]1)Cc1cc(C)ccc1O | 24.5 | 2420 | 408 | > 200 | 60 | 4220 |
| CCN(CCNc1nc2ccccc2[nH]1)Cc1cc(Cl)ccc1O | 25.1 | 762 | 110 | 160 (≈ 55.2 µg/mL) | 228 | 125 |
| CC[C@H]1CN2CCc3cc(OC)c(OC)cc3[C@@H]2C[C@@H]1C[C@H]1NCCc2cc(OC)c(OC)cc21 [EMETINE] | 0.059 | – | – | – | – | – |
| CCN(CCNc1nc2ccccc2[nH]1)Cc1cc(OC)ccc1O | 50 | 3040 | 320 | 160 (≈ 54.5 µg/mL) | 156 | 489 |
| CCN(CCNc1nc2ccccc2[nH]1)Cc1cc(C#N)ccc1O | 50 | > 10000 | 968 | 160 (≈ 53.7 µg/mL) | 52 | 250 |
